Patent publication US20230312562A1, “TETRAHYDRO-3H-PYRAZOLO QUINOLONE AND TETRAHYDRO-3H-PYRROLO[3,2-F]QUINOLINE -CONTAINING COMPOUNDS AND USES THEREOF” (Purdue Research Foundation, priority 2020, published 2023)
Marks after values point to notes of the source that are not given here.

Experiments:
Type in all cases: cell-based
[1] = system: MDA-MB-231; assay: Inhibition of MDA-MB-231 viability/growth at 1 μM, 72 h; details: 1 μM compound, 72 h incubation; for inhibition at 1 µM: Homo sapiens, MDA-MB-231
[2] = system: MDA-MB-435; assay: NCI-60 sulforhodamine B assay, MDA-MB-435; details: MDA-MB-435, melanoma, 48 h; for GI50: Homo sapiens
Description: (§1) Compounds HSD1787, 22, 23 and 27 were sent to the National Cancer Institute (NCI), Bethesda, Maryland (Drug Evaluation Branch), to evaluate the effects of compounds on the NCI-60 cell panel. According to the NCI protocol, the compounds were evaluated at five concentrations (10-fold dilutions) with the highest concentration being 100 μM and the incubation period was 48 h. A sulforhodamine B assay was used to assay the effects of the compounds on the cancer cells. […] The most sensitive cell lines (total growth inhibition, TGI, could be achieved with concentrations less than 1 μM of some of the compounds) were MDA-MB-435 (melanoma), SF-539 (glioma), A498 (renal), MDA-MB-468 (breast), OVCAR-3 (ovarian), NCI-H522 (non-small cell lung cancer). On the other hand, UACC-257 and SK-MEL-28 (both melanoma), TK-10 (renal), OVCAR-4 (ovarian) and T-47D (breast) were resistant to the compounds as 10 μM could not cause total growth inhibition (Table 2). […] This is in line with current appreciation that tumor mutational burden and not necessarily the anatomical origin of the tumor determines treatment strategies or outcomes.
(§2) According to the National Cancer Institute, Bethesda, Maryland (the protocol of the Drug Evaluation Branch), the effects of compounds are measured as follows: Cell suspensions are diluted to a target cell density of 5000-40,000 cells per well (based on cell growth characteristics) in a 96-well microtiter plates. The test compounds were evaluated at five concentrations (10-fold dilutions) with the highest concentration being 100 μM. The incubation period was 48 h under 5% carbon dioxide atmosphere and 100% humidity. A sulforhodamine B assay was used to assay the cells. Optical densities of the wells were read by a plate reader the optical densities were processed into GI50 (the concentration that causes 50% growth inhibition).
(§3) The NCI renamed the IC50 value, the concentration of compound that causes 50% growth inhibition, as follows:
(§4) The control is the well not treated with test agent (https://dtp.cancer.gov/databases_tools/docs/compare/compare_methodology.htm).

[3] = system: NCI/ADR-RES; assay: NCI-60 sulforhodamine B assay, NCI/ADR-RES; details: ovarian, 48 h; for GI50: Homo sapiens
Description: as §1, §2, §3, §4

[4] = system: K-562; assay: NCI-60 sulforhodamine B assay, K-562; details: Homo sapiens, K562; K-562, leukemia, 48 h
Description: as §1, §2, §3, §4

[5] = system: A498; assay: NCI-60 sulforhodamine B assay, A498; details: A498, renal, 48 h; for GI50: Homo sapiens
Description: as §1, §2, §3, §4

[6] = system: SF-295; assay: NCI-60 sulforhodamine B assay, SF-295; details: SF-295, CNS, 48 h; for GI50: Homo sapiens
Description: as §1, §2, §3, §4

[7] = system: NCI-H522; assay: NCI-60 sulforhodamine B assay, NCI-H522; details: NCI-H522, non-small cell lung, 48 h; for GI50: Homo sapiens
Description: as §1, §2, §3, §4

[8] = system: TK-10; assay: NCI-60 sulforhodamine B assay, TK-10; details: Homo sapiens; TK-10, renal, 48 h
Description: as §1, §2, §3, §4

[9] = system: SF-539; assay: NCI-60 sulforhodamine B assay, SF-539; details: SF-539, CNS, 48 h; for GI50: Homo sapiens
Description: as §1, §2, §3, §4

[10] = system: SK-MEL-28; assay: NCI-60 sulforhodamine B assay, SK-MEL-28; details: Homo sapiens; SK-MEL-28, melanoma, 48 h
Description: as §1, §2, §3, §4

[11] = system: SR; assay: NCI-60 sulforhodamine B assay, SR; details: Homo sapiens, lymphoma, 48 h
Description: as §1, §2, §3, §4

[12] = system: NCI60 cell lines; assay: NCI-60 cell panel, summary statements; details: melanoma, renal, breast, ovarian and leukemia cancer cell lines; read-out: GI50 values as low as
Description: as §1, §2, §3, §4

[13] = system: Ovcar-4; assay: NCI-60 sulforhodamine B assay, Ovcar-4; details: Homo sapiens; Ovcar-4, ovarian, 48 h
Description: as §1, §2, §3, §4

[14] = system: Ovcar-8; assay: NCI-60 sulforhodamine B assay, Ovcar-8; details: Homo sapiens; Ovcar-8, ovarian, 48 h
Description: as §1, §2, §3, §4

[15] = system: MDA-MB-468; assay: NCI-60 sulforhodamine B assay, MDA-MB-468; details: MDA-MB-468, breast, 48 h; for GI50: Homo sapiens
Description: as §1, §2, §3, §4

[16] = system: MCF7; assay: NCI-60 sulforhodamine B assay, MCF7; details: MCF7, breast, 48 h; for GI50: Homo sapiens
Description: as §1, §2, §3, §4

[17] = system: UACC-257; assay: NCI-60 sulforhodamine B assay, UACC-257; details: Homo sapiens; UACC-257, melanoma, 48 h
Description: as §1, §2, §3, §4

[18] = system: Ovcar-3; assay: NCI-60 sulforhodamine B assay, Ovcar-3; details: Ovcar-3, ovarian, 48 h; for GI50: Homo sapiens
Description: as §1, §2, §3, §4

[19] = system: T-47D; assay: NCI-60 sulforhodamine B assay, T-47D; details: Homo sapiens, T47D, breast, 48 h
Description: as §1, §2, §3, §4

Compound: Nc1n[nH]c2ccc([C@@H]3Nc4ccc5[nH]nc(F)c5c4[C@H]4C5CC[C@@H](C5)[C@@H]34)cc12 (stereo in doubt) [Compound 21, 5-(1-Fluoro-6,7,7a,8,9,10,11,11a-octahydro-3H-8,11-methanopyrazolo[4,3-a]phenanthridin-7-yl)-1H-indazol-3-amine]
- Inhibition of MDA-MB-231, result in words [1]: loss of potency

Compound: Nc1n[nH]c2ccc([C@@H]3Nc4c(F)cc5[nH]ncc5c4[C@H]4[C@@H]5CC[C@@H](C5)[C@H]43)cc12 (stereo in doubt) [Compound 22, 5-(5-fluoro-6,7,7a,8,9,10,11,11a-octahydro-3H-8,11-methanopyrazolo[4,3-a]phenanthridin-7-yl)-1H-indazol-3-amine]
- GI50 [2]: 34.8 nM
- GI50 [3]: 198 nM
- TGI (total growth inhibition) [3]: 0.921 µM
- GI50 [4]: 47.7 nM
- TGI (total growth inhibition) [5]: 0.636 µM
- GI50 [5]: 72.2 nM
- GI50 [6]: 50 nM
- GI50 [7]: 115 nM
- TGI (total growth inhibition) [7]: 1.92 µM
- GI50 [8]: 10.7 µM
- GI50 [9]: 167 nM
- TGI (total growth inhibition) [9]: 0.590 µM
- GI50 [10]: 1400 nM
- GI50 [11]: 87.7 nM
- GI50 [12]: ≥ 30 nM
- GI50 [13]: 3340 nM
- GI50 [14]: 448 nM
- GI50 [15]: 78.8 nM
- TGI (total growth inhibition) [15]: 0.468 µM
- GI50 [16]: 61.6 nM
- GI50 [17]: 5.01 µM
- inhibition at 1 µM [1]: 79%
- GI50 [18]: 220 nM
- TGI (total growth inhibition) [18]: 0.806 µM
- GI50 [19]: > 10 µM

Compound: Nc1n[nH]c2cc(F)c([C@@H]3Nc4c(F)cc5[nH]ncc5c4[C@H]4[C@@H]5CC[C@@H](C5)[C@H]43)cc12 (stereo in doubt) [Compound 23, 6-Fluoro-5-(5-fluoro-6,7,7a,8,9,10,11,11a-octahydro-3H-8,11-methanopyrazolo[4,3-a]phenanthridin-7-yl)-1H-indazol-3-amine]
- GI50 [2]: 84.6 nM
- TGI (total growth inhibition) [2]: 0.231 µM
- GI50 [3]: 150 nM
- TGI (total growth inhibition) [3]: 5.81 µM
- GI50 [4]: 110 nM
- TGI (total growth inhibition) [5]: 0.2 µM
- GI50 [5]: 69 nM
- GI50 [6]: 91.5 nM
- TGI (total growth inhibition) [6]: 3.99 µM
- GI50 [7]: 105 nM
- TGI (total growth inhibition) [7]: 6.60 µM
- GI50 [8]: 5.72 µM
- GI50 [9]: 85.2 nM
- TGI (total growth inhibition) [9]: 0.270 µM
- GI50 [10]: 3680 nM
- GI50 [11]: 131 nM
- GI50 [12]: ≥ 30 nM
- GI50 [13]: 1170 nM
- GI50 [14]: 142 nM
- GI50 [15]: 86.5 nM
- GI50 [16]: 131 nM
- TGI (total growth inhibition) [16]: 8.33 µM
- GI50 [17]: 5.66 µM
- GI50 [18]: 103 nM
- TGI (total growth inhibition) [18]: 4.10 µM
- GI50 [19]: > 10 µM

Compound: Nc1n[nH]c2cc([C@@H]3Nc4c(Cl)cc5[nH]ncc5c4[C@H]4[C@@H]5CC[C@@H](C5)[C@H]43)ccc12 (stereo in doubt) [Compound 24, 6-(5-Chloro-6,7,7a,8,9,10,11,11a-octahydro-3H-8,11-methanopyrazolo[4,3-a]phenanthridin-7-yl)-1H-indazol-3-amine]
- Inhibition of MDA-MB-231, result in words [1]: inactive

Compound: Nc1n[nH]c2cc([C@@H]3Nc4c(Br)cc5[nH]ncc5c4[C@H]4[C@@H]5CC[C@@H](C5)[C@H]43)ccc12 (stereo in doubt) [Compound 25, 6-(5-Bromo-6,7,7a,8,9,10,11,11a-octahydro-3H-8,11-methanopyrazolo[4,3-a]phenanthridin-7-yl)-1H-indazol-3-amine]
- Inhibition of MDA-MB-231, result in words [1]: inactive

Compound: Nc1n[nH]c2cc(F)c([C@@H]3Nc4ccc5[nH]ncc5c4[C@H]4[C@@H]5CC[C@@H](C5)[C@H]43)cc12 (stereo in doubt) [Compound 27, 6-Fluoro-5-(6,7,7a,8,9,10,11,11a-octahydro-3H-8,11-methanopyrazolo[4,3-a]phenanthridin-7-yl)-1H-indazol-3-amine]
- GI50 [2]: 94.3 nM
- TGI (total growth inhibition) [2]: 0.283^d μM
- GI50 [3]: 177 nM
- TGI (total growth inhibition) [3]: 1.21 µM
- GI50 [4]: 92.2 nM
- TGI (total growth inhibition) [5]: 0.280^d μM
- GI50 [5]: 71.4 nM
- GI50 [6]: 139 nM
- TGI (total growth inhibition) [6]: 5.77 µM
- GI50 [7]: 109 nM
- TGI (total growth inhibition) [7]: 0.544^d μM
- GI50 [8]: 2.02 µM
- GI50 [9]: 114 nM
- TGI (total growth inhibition) [9]: 0.304^d μM
- GI50 [10]: 352 nM
- GI50 [11]: 59.8 nM
- GI50 [12]: ≥ 30 nM
- GI50 [13]: 416 nM
- GI50 [14]: 194 nM
- GI50 [15]: 133 nM
- TGI (total growth inhibition) [15]: 0.424^d μM
- GI50 [16]: 137 nM
- TGI (total growth inhibition) [16]: 8.44 µM
- GI50 [17]: 2.7 µM
- inhibition at 1 µM [1]: ~100%
- GI50 [18]: 138 nM
- GI50 [19]: > 10 µM

Compound: O=C(Nc1n[nH]c2ccc([C@@H]3Nc4ccc5[nH]ncc5c4[C@H]4[C@@H]5CC[C@@H](C5)[C@H]43)cc12)C1CC1 (stereo in doubt) [Compound 28, N-(5-(6,7,7a,8,9,10,11,11a-octahydro-3H-8,11-Methanopyrazolo[4,3-a]phenanthridin-7-yl)-1H-indazol-3-yl)cyclopropanecarboxamide]
- inhibition at 1 µM [1]: 31%

Compound: Nc1n[nH]c2cc([C@@H]3Nc4ccc5[nH]ncc5c4[C@H]4[C@@H]5CC[C@@H](C5)[C@H]43)ccc12 (stereo in doubt) [Compound 30, 6-(6,7,7a,8,9,10,11,11a-Octahydro-3H-8, 11-methanopyrazolo[4,3-a]phenanthridin-7-yl)-1H-indazol-3-amine]
- inhibition at 1 µM [1]: 29%

Compound: Nc1n[nH]c2ccc([C@@H]3Nc4ccc5cn[nH]c5c4[C@H]4[C@@H]5CC[C@@H](C5)[C@H]43)cc12 (stereo in doubt) [Compound 31, 5-(6,7,7a,8,9,10,11,11a-Octahydro-1H-8,11-methanopyrazolo[3,4-a]phenanthridin-7-yl)-1H-indazol-3-amine]
- inhibition at 1 µM [1]: 94%

Compound: Nc1n[nH]c2ccc(-c3nc4ccc5[nH]ncc5c4c4c3[C@H]3CC[C@@H]4C3)cc12 (stereo in doubt) [Compound 32, 5-(8,9,10,11-tetrahydro-3H-8,11-Methanopyrazolo[4,3-a]phenanthridin-7-yl)-1H-indazol-3-amine]
- inhibition at 1 µM [1]: 19%

Compound: Nc1n[nH]c2ccc([C@@H]3Nc4ccc5[nH]ncc5c4[C@H]4OCCO[C@H]43)cc12 (stereo in doubt) [Compound 33, 5-(2,3,4a,6,9,11c-Hexahydro-5H-[1,4]dioxino[2,3-c]pyrazolo[4,3-f]quinolin-5-yl)-1H-indazol-3-amine]
- Inhibition of MDA-MB-231, result in words [1]: no activity

Compound: Nc1nc2ccc([C@@H]3Nc4ccc5[nH]ncc5c4[C@H]4[C@@H]5CC[C@@H](C5)[C@H]43)cc2s1 [Compound 29, 6-(6,7,7a,8,9,10,11,11a-Octahydro-3H-8,11-methanopyrazolo[4,3-a]phenanthridin-7-yl)benzo[d]thiazol-2-amine]
- inhibition at 1 µM [1]: 41%
